We go through 27 molecules from patent publication US20170265474A1, “BICYCLIC COMPOUNDS AS PEST CONTROL AGENTS” (BAYER CROPSCIENCE AKTIENGESELLSCHAFT, priority 2014, published 2017).

Like-named read-outs stand apart in the source and are kept apart here.

Data set [1] in a line: log P by HPLC on reversed-phase (C18) columns, OECD Guideline 117. The class given is physicochemical. The note with it: reversed-phase (C18) HPLC column. The method, then: The log P values were determined in accordance with OECD Guideline 117 (EC Directive 92/69/EEC) by HPLC (high-performance liquid chromatography) using reversed-phase (RP) columns (C18), by the following methods: [a] The LC-MS determination in the acidic range is carried out at pH 2.7 with 0.1% aqueous formic acid and acetonitrile (contains 0.1% formic acid) as eluents; linear gradient from 10% acetonitrile to 95% acetonitrile. [b] LC-MS determination in the neutral range is effected at pH 7.8 with 0.001 molar aqueous ammonium hydrogencarbonate solution and acetonitrile as eluents; linear gradient from 10% acetonitrile to 95% acetonitrile. Calibration is carried out using unbranched alkan-2-ones (having 3 to 16 carbon atoms) with known log P values (log P values determined on the basis of the retention times by linear interpolation between two successive alkanones).

The test system of data set [2] is Myzus persicae. Kind of data set: Myzus persicae spray test (bell pepper plants). The class given is in vivo, green peach aphid (Myzus persicae). The note with it: after 6 days. On the procedure: Myzus persicae—Spray Test • Solvent: 7 parts by weight of dimethylformamide • Emulsifier: alkylaryl polyglycol ether To produce a suitable preparation of active compound, 1 part by weight of active compound is dissolved using the specified parts by weight of solvent and made up with water containing an emulsifier concentration of 1000 ppm until the desired concentration is attained. To produce further test concentrations, the formulation is diluted with emulsifier-containing water. If the addition of ammonium salts or/and penetrants is required, these are each added in a concentration of 1000 ppm to the formulation solution. Bell pepper plants (Capsicum annuum) severely infested with the green peach aphid (Myzus persicae) are treated by spraying with the active compound formulation in the desired concentration. After 6 days, the kill in % is determined. 100% means that all of the aphids have been killed; 0% means that none of the aphids have been killed.

Data set [3] concerns Myzus persicae. Kind of data set: Myzus persicae spray test (Chinese cabbage leaf discs). The class given is in vivo, green peach aphid (Myzus persicae). To be noted: foliar, 144 h, application rate 500 g/ha, after 6 days, 100% = all aphids killed, read-out: efficacy. On the procedure:
Myzus persicae—Spray Test • Solvent: 78 parts by weight of acetone • 1.5 parts by weight of dimethylformamide • Emulsifier: alkylaryl polyglycol ether To produce a suitable preparation of active compound, 1 part by weight of active compound is dissolved using the specified parts by weight of solvent and made up with water containing an emulsifier concentration of 1000 ppm until the desired concentration is attained. To produce further test concentrations, the formulation is diluted with emulsifier-containing water. Discs of Chinese cabbage leaves (Brassica pekinensis) infested by all stages of the green peach aphid (Myzus persicae) are sprayed with an active compound formulation of the desired concentration. After 6 days, the efficacy in % is determined. 100% means that all the aphids have been killed; 0% means that no aphids have been killed.

The subject of the next data set is Aphis gossypii. The data set is described as follows: Aphis gossypii spray test (cotton plants). To be noted: application rate 4 ppm, after 6 days. The class given is in vivo, cotton aphid (Aphis gossypii). The method, then: Aphis gossypii—Spray Test • Solvent: 7 parts by weight of dimethylformamide • Emulsifier: alkylaryl polyglycol ether To produce a suitable preparation of active compound, 1 part by weight of active compound is dissolved using the specified parts by weight of solvent and made up with water containing an emulsifier concentration of 1000 ppm until the desired concentration is attained. To produce further test concentrations, the formulation is diluted with emulsifier-containing water. If the addition of ammonium salts or/and penetrants is required, these are each added in a concentration of 1000 ppm to the formulation solution. Cotton plants (Gossypium hirsutum) which are heavily infested by the cotton aphid (Aphis gossypii) are sprayed with an active compound formulation of the desired concentration. After 6 days, the kill in % is determined. 100% means that all the aphids have been killed; 0% means that no aphids have been killed.

In the next data set the test system is Tetranychus urticae. Kind of data set: Tetranychus urticae spray test, OP-resistant (bean leaf discs). It counts as in vivo, greenhouse red spider mite (Tetranychus urticae). The note with it: application rate 500 g/ha, after 6 days, 100% = all spider mites killed. The method, then: Tetranychus urticae—Spray Test, OP-Resistant • Solvent: 78.0 parts by weight of acetone • 1.5 parts by weight of dimethylformamide • Emulsifier: alkylaryl polyglycol ether
To produce a suitable preparation of active compound, 1 part by weight of active compound is dissolved using the specified parts by weight of solvent and made up with water containing an emulsifier concentration of 1000 ppm until the desired concentration is attained. To produce further test concentrations, the formulation is diluted with emulsifier-containing water.
Discs of bean leaves (Phaseolus vulgaris) infested with all stages of the greenhouse red spider mite (Tetranychus urticae) are sprayed with an active compound formulation of the desired concentration.
After 6 days, the efficacy in % is determined. 100% means that all the spider mites have been killed; 0% means that no spider mites have been killed.

Where [4] appears, read: acidic range, pH 2.7, 0.1% aqueous formic acid / acetonitrile, read-out: logP[a].
The mark [5] stands for this setting: neutral range, pH 7.8, 0.001 molar aqueous ammonium hydrogencarbonate / acetonitrile, read-out: logP[b].

With `Cc1cc(F)c(-c2ccc3nc(-c4cccnc4)sc3n2)cc1SCC(F)(F)F` [Example 1, 5-[2-Fluoro-4-methyl-5-(2,2,2-trifluoroethylsulfanyl)phenyl]-2-(3-pyridyl)thiazol [5,4-b]pyridine], the figures for the chromatographic logP in data set [1] (setting [4]) and in data set [1] (setting [5]) were 4.81 and 4.75, respectively. In addition, the “efficacy (kill)” value in the data set on Myzus persicae [2] (application rate 4 ppm) is on record as 100%. Also, the pest or weed control at 500 g/ha in the data set with Myzus persicae [3] is 100%.

As for `Cc1ccc(-c2ccc3nc(-c4cccnc4)sc3n2)cc1SCC(F)(F)F` [Example 2, 5-[4-Methyl-3-(2,2,2-trifluoroethylsulfanyl)phenyl]-2-(3-pyridyl)thiazolo[5,4-b]pyridine], the chromatographic logP in data set [1] (setting [4]) was 4.67; in data set [1] (setting [5]), 4.64. Further, the “efficacy (kill)” value in the data set on Myzus persicae [2] (application rate 4 ppm) is 100%. The pest or weed control at 500 g/ha in the data set on Myzus persicae [3] worked out at 90%.

In the case of `Cc1cc(F)c(-c2ccc3nc(-c4cccnc4)sc3n2)cc1[S+]([O-])CC(F)(F)F` (stereo not shown) [Example 3, 5-[2-Fluoro-4-methyl-5-(2,2,2-trifluoroethylsulfinyl)phenyl]-2-(3-pyridyl)thiazolo[5,4-b]pyridine], the figures for the chromatographic logP in data set [1] (setting [4]) and in data set [1] (setting [5]) were 3.02 and 3.09, respectively. Further, in the data set on Myzus persicae [2] (application rate 4 ppm), the “efficacy (kill)” value is 97%.

On to `Cc1ccc(-c2ccc3nc(-c4cccnc4)sc3n2)cc1[S+]([O-])CC(F)(F)F` (stereo not shown) [Example 4, 5-[4-Methyl-3-(2,2,2-trifluoroethylsulfinyl)phenyl]-2-(3-pyridyl)thiazolo[5,4-b]pyridine], for which the values for the chromatographic logP in data set [1] (setting [4]) and in data set [1] (setting [5]) were 2.99 and 2.98, respectively. Further, the “efficacy (kill)” value in the data set with Myzus persicae [2] (application rate 4 ppm) is recorded as 95%. For the same molecule, the pest or weed control at 500 g/ha in the data set on Myzus persicae [3] was 90%.

With `c1cncc(-c2nc3ccc(N4CCCC4)nc3s2)c1` [Example 6, 2-(3-Pyridyl)-5-pyrrolidin-1-ylthiazolo[5,4-b]pyridine], the chromatographic logP was 2.53 in data set [1] (setting [4]) and 2.97 in data set [1] (setting [5]). The “efficacy (kill)” value with Myzus persicae [2] (application rate 100 ppm) is on record as 95%.

As for `c1cnc(-c2ccc3nc(-c4cccnc4)sc3n2)nc1` [Example 7, 2-(3-Pyridyl)-5-pyrimidin-2-ylthiazolo[5,4-b]pyridine], the figures for the chromatographic logP in data set [1] (setting [4]) and in data set [1] (setting [5]) were 1.43 and 1.5, respectively. Further, the “efficacy (kill)” value in the data set with Aphis gossypii stood at 80%.

Turning to `c1ccc(-c2ccc3nc(-c4cccnc4)sc3n2)nc1` [Example 8, 5-(2-Pyridyl)-2-(3-pyridyl)thiazolo[5,4-b]pyridine], the chromatographic logP in data set [1] (setting [4]) came to 2.12; in data set [1] (setting [5]), 2.68. Moreover, in the data set with Myzus persicae [2] (application rate 4 ppm), the “efficacy (kill)” value was 80%.

Regarding `Cc1ccc(Nc2ccc3nc(-c4cccnc4)sc3n2)cc1SCC(F)(F)F` [Example 9, N-[4-Methyl-3-(2,2,2-trifluoroethylsulfanyl)phenyl]-2-(3-pyridyl)thiazolo[5,4-b]pyridine-5-amine], the chromatographic logP amounted to 3.99 in data set [1] (setting [4]) and 4.06 in data set [1] (setting [5]). In the data set on Tetranychus urticae, this molecule displayed an efficacy of 90%.

Take `FC(F)(F)c1ccc2nc(-c3cccnc3)sc2n1` [Example 10, 2-(3-Pyridyl)-5-(trifluoromethyl)thiazolo[5,4-b]pyridine]: the chromatographic logP in data set [1] (setting [4]) stood at 2.65; in data set [1] (setting [5]), 2.69. Also, the efficacy in the data set with Tetranychus urticae stood at 90%.

Turning to `c1cncc(-c2nc3ccc(N4CCOCC4)nc3s2)c1` [Example 11, 4-[2-(3-Pyridyl)thiazolo[5,4-b]pyridin-5-yl]morpholine], the chromatographic logP was 2.1 in data set [1] (setting [4]) and 1.95 in data set [1] (setting [5]). The pest or weed control at 500 g/ha in the data set on Myzus persicae [3] was determined as 90%.

Regarding `Cc1ccc(N(C)c2ccc3nc(-c4cccnc4)sc3n2)cc1SCC(F)(F)F` [Example 12, N-methyl-N-[4-methyl-3-(2,2,2-trifluoroethylsulfanyl)phenyl]-2-(3-pyridyl)thiazolo[5,4-b]pyridine-5-amine], the chromatographic logP in data set [1] (setting [4]) was 4.81; in data set [1] (setting [5]), 4.78. Besides, in the data set on Myzus persicae [3], the pest or weed control at 500 g/ha worked out at 90%.

As to `FC(F)(F)c1cnn(-c2ccc3nc(-c4cccnc4)sc3n2)c1` [Example 13, 2-(3-Pyridyl)-5-[4-(trifluoromethyl)pyrazol-1-yl]thiazolo[5,4-b]pyridine], the chromatographic logP worked out at 3.82 in data set [1] (setting [4]) and 3.72 in data set [1] (setting [5]).

Regarding `CNc1ccc2nc(-c3cccnc3)sc2n1` [Example 15], the chromatographic logP in data set [1] (setting [4]) turned out to be 1.34.

As to `CSCCC(=O)N(C)c1ccc2nc(-c3cccnc3)sc2n1` [Example 22], the chromatographic logP in data set [1] (setting [4]) was 1.98. In addition, the pest or weed control at 500 g/ha with Myzus persicae [3] was found to be 90%.

Regarding `CN(C(=O)c1cccc([S+]([O-])C(F)(F)F)c1)c1ccc2nc(-c3cccnc3)sc2n1` (stereo not shown) [Example 29], the chromatographic logP in data set [1] (setting [4]) came out at 2.23. Further, the pest or weed control at 500 g/ha with Myzus persicae [3] was found to be 100%.

As to `CN(C(=O)CCS(C)(=O)=O)c1ccc2nc(-c3cccnc3)sc2n1` [Example 30, N-Methyl-3-(methylsulfonyl)-N-[2-(pyridin-3-yl)[1,3]thiazolo[5,4-b]pyridin-5-yl]propanamide], in data set [1] (setting [4]), the chromatographic logP stood at 1.25. For the same molecule, in the data set on Myzus persicae [3], the pest or weed control at 500 g/ha amounted to 90%.

For `CN(C(=O)c1cccc(S(=O)(=O)C(F)(F)F)c1)c1ccc2nc(-c3cccnc3)sc2n1` [Example 31], the chromatographic logP in data set [1] (setting [4]) stood at 1.54. Moreover, in the data set with Myzus persicae [3], the pest or weed control at 500 g/ha amounted to 90%.

On to `CNC(=O)c1ccc2nc(-c3cccnc3)sc2n1` [Example 32], for which the chromatographic logP in data set [1] (setting [4]) was determined as 1.35.

For `CCN(C)C(=O)c1ccc2nc(-c3cccnc3)sc2n1` [Example 33], the chromatographic logP in data set [1] (setting [4]) was 1.53.

For the molecule `O=C(Nc1cccc(S(=O)(=O)C(F)(F)F)c1)c1ccc2nc(-c3cccnc3)sc2n1` [Example 34], the chromatographic logP in data set [1] (setting [4]) was 2.1.

Turning to `CSCCNC(=O)c1ccc2nc(-c3cccnc3)sc2n1` [Example 35], the chromatographic logP in data set [1] (setting [4]) turned out to be 2.03. Further, in the data set on Myzus persicae [3], the pest or weed control at 500 g/ha was 90%.

As for `O=C(Nc1cccc([S+]([O-])C(F)(F)F)c1)c1ccc2nc(-c3cccnc3)sc2n1` (stereo not shown) [Example 36], in data set [1] (setting [4]), the chromatographic logP came out at 3.09.

Take `O=C(Nc1ccc2nc(-c3cccnc3)sc2n1)c1cccc([S+]([O-])C(F)(F)F)c1` (stereo not shown) [Example 37]: the chromatographic logP in data set [1] (setting [4]) amounted to 2.61.

Consider `CS(=O)(=O)CCC(=O)Nc1ccc2nc(-c3cccnc3)sc2n1` [Example 38], for which the chromatographic logP in data set [1] (setting [4]) came to 1.18.

Consider `FC(F)(F)c1ccn(-c2ccc3nc(-c4cccnc4)sc3n2)n1` [Example 39], for which the chromatographic logP was determined as 3.79 in data set [1] (setting [4]) and 3.83 in data set [1] (setting [5]).

In the case of `Clc1ccc2nc(-c3cccnc3)sc2n1` [Example 40], the values for the chromatographic logP in data set [1] (setting [4]) and in data set [1] (setting [5]) were 2.26 and 2.33, respectively.

On to `Cc1ccc(Nc2ccc3nc(-c4cccnc4)sc3n2)cc1[S+]([O-])CC(F)(F)F` (stereo not shown) [Example 42], for which the chromatographic logP came to 2.75 in data set [1] (setting [4]) and 2.77 in data set [1] (setting [5]).
